Values of other authors in patent publication US20250235578A1, “WOUND DRESSING COMPOSITIONS AND METHODS OF USE AND PREPARATION THEROF” (T.J.Smith and Nephew,Limited, priority 2021, published 2025).

Conditions: under normal conditions

Question: With [N]=O [NO, nitric oxide] as the compound, how does the “maximum solubility in water” value read?
Answer: approximately 1.7 mM
